The subject of the first assay is ring stage parasites. The assay is described as follows: Parasite growth potency assay, 72 hours, LDH readout. As to conditions: 72 h. It is filed as cell-based. In a few lines: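 Parasite growth was quantified by LDH assay after a −80 °C freeze-thaw. Before that, compound was incubated for 72 h at 37 °C under humidified gas with ring-stage cultures adjusted to 0.7% parasitemia and 2% haematocrit in serum- and albumax-supplemented RPMI-Hepes.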
On to `CCC1(CC)CC(=O)N([C@H](c2cccc(OS(=O)(=O)F)c2)c2cccc(C(=O)N[C@H]3CCOc4ccccc43)c2)C(=N)N1` [Example 149A, [1-[[3-[[(4S)-chroman-4-yl]carbamoyl]phenyl]-(3-fluorosulfonyloxyphenyl)methyl]-4,4-diethyl-6-oxo-hexahydropyrimidin-2-ylidene]ammonium; 2,2,2-trifluoroacetate], for which the EC50 (usually the concentration at which the effect is half-maximal) turned out to be 1.5 nM.
Same read-out and setting: with `CCC1(CC)CC(=O)N([C@@H](c2cccc(OS(=O)(=O)F)c2)c2cccc(C(=O)N[C@H]3CCOc4ccccc43)c2)C(=N)N1` [Example 149B, [1-[[3-[[(4S)-chroman-4-yl]carbamoyl]phenyl]-(3-fluorosulfonyloxyphenyl)methyl]-4,4-diethyl-6-oxo-hexahydropyrimidin-2-ylidene]ammonium; 2,2,2-trifluoroacetate] the figure was 57.6 nM; with `CCC1(CC)CC(=O)N([C@H](c2ccc(OS(=O)(=O)F)cc2)c2cccc(C(=O)N[C@H]3CCOc4ccccc43)c2)C(=N)N1` [Example 150, [1-[[3-[[(4S)-chroman-4-yl]carbamoyl]phenyl]-(4-fluorosulfonyloxyphenyl)methyl]-4,4-diethyl-6-oxo-hexahydropyrimidin-2-ylidene]ammonium; 2,2,2-trifluoroacetate], 2.8 nM.

The assay is the same for the next values; noted with them: 72 h, parasite growth measured by LDH assay after 72 hours at 37° C.; 0.7% rings, 2% haematocrit; read-out: EC50.
For the compound `CCC1(CC)CC(=O)N([C@H](CC(C)(C)O)c2cccc(C(=O)N[C@H]3CC(C)(C)Oc4ccccc43)c2)C(=N)N1` [Example 145, 3-[1-(4,4-diethyl-2-imino-6-oxo-hexahydropyrimidin-1-yl)-3-hydroxy-3-methyl-butyl]-N-[(4S)-2,2-dimethylchroman-4-yl]benzamide], the EC50 was 0.7 nM.
The same measure, in the same setting: with `CCC1(CC)CC(=O)N([C@H](COCCOC)c2cccc(C(=O)NC3c4ccccc4CC3(C)O)c2)C(=N)N1` (stereo partly drawn) [Example 146A, 3-[(1S)-1-(4,4-diethyl-2-imino-6-oxo-hexahydropyrimidin-1-yl)-2-(2-methoxyethoxy)ethyl]-N-(2-hydroxy-2-methyl-indan-1-yl)benzamide] the figure was 5.3 nM; with `CCC1(CC)CC(=O)N([C@H](CCOC)c2cccc(C(=O)NC3c4ccccc4OC(C(F)(F)F)C3O)c2)C(=N)N1` (stereo partly drawn) [Example 151, [4,4-diethyl-1-[(1R)-1-[3-[[3-hydroxy-2-(trifluoromethyl)chroman-4-yl]carbamoyl]phenyl]-3-methoxy-propyl]-6-oxo-hexahydropyrimidin-2-ylidene]ammonium; 2,2,2-trifluoroacetate], 1.1 nM.
Still for that read-out and setting: with `CCC1(CC)CC(=O)N([C@H](CCOC)c2cccc(C(=O)N[C@@H]3c4ccccc4OC[C@@H]3O)c2)C(=N)N1` [Example 152A, [4,4-diethyl-1-[(1R)-1-[3-[[(3R,4R)-3-hydroxychroman-4-yl]carbamoyl]phenyl]-3-methoxy-propyl]-6-oxo-hexahydropyrimidin-2-ylidene]ammonium; 2,2,2-trifluoroacetate] the figure was 8.8 nM.
As to `CCC1(CC)CC(=O)N([C@H](CCOC)c2cccc(C(=O)N[C@@H]3c4ccccc4OC[C@H]3O)c2)C(=N)N1` [Example 152B, [4,4-diethyl-1-[(1R)-1-[3-[[(3S,4R)-3-hydroxychroman-4-yl]carbamoyl]phenyl]-3-methoxy-propyl]-6-oxo-hexahydropyrimidin-2-ylidene]ammonium; 2,2,2-trifluoroacetate], the EC50 is 2 nM.
Same read-out and setting: with `CCC1(CC)CC(=O)N([C@H](CCS(C)(=O)=O)c2cccc(C(=O)N[C@@H]3c4ccccc4C[C@H]3O)c2)C(=N)N1` [Example 153, [4,4-diethyl-1-[1-[3-[[(1R,2R)-2-hydroxyindan-1-yl]carbamoyl]phenyl]-3-methylsulfonyl-propyl]-6-oxo-hexahydropyrimidin-2-ylidene]ammonium; 2,2,2-trifluoroacetate] the figure was 77.8 nM.
On the same count and under the same terms, the result for `CCC1(CC)CC(=O)N([C@H](CCS(C)(=O)=O)c2cccc(C(=O)N[C@@H]3c4ccccc4C[C@@]3(C)O)c2)C(=N)N1` [Example 154A, 3-[1-(4,4-diethyl-2-imino-6-oxo-hexahydropyrimidin-1-yl)-3-methylsulfonyl-propyl]-N-[(1R,2R)-2-hydroxy-2-methyl-indan-1-yl]benzamide] reads 54 nM; that for `CCC1(CC)CC(=O)N([C@H](CCS(C)(=O)=O)c2cccc(C(=O)N[C@@H]3c4ccccc4OC(C)(C)[C@H]3O)c2)C(=N)N1` [Example 155, [4,4-diethyl-1-[1-[3-[[(3S,4R)-3-hydroxy-2,2-dimethyl-chroman-4-yl]carbamoyl]phenyl]-3-methylsulfonyl-propyl]-6-oxo-hexahydropyrimidin-2-ylidene]ammonium; 2,2,2-trifluoroacetate], 17.2 nM.
Turning to `CCC1(CC)CC(=O)N([C@H](CCS(C)(=O)=O)c2cccc(C(=O)N[C@H]3CC(C)(C)Oc4ccccc43)c2)C(=N)N1` [Example 156, [1-[1-[3-[[(4S)-2,2-dimethylchroman-4-yl]carbamoyl]phenyl]-3-methylsulfonyl-propyl]-4,4-diethyl-6-oxo-hexahydropyrimidin-2-ylidene]ammonium; 2,2,2-trifluoroacetate], the EC50 worked out at 5.7 nM.
Same read-out and setting: the result for `CCC1(CC)CC(=O)N([C@H](CCOC(F)F)c2cccc(C(=O)N[C@@H]3c4ccccc4C[C@H]3O)c2)C(=N)N1` [Example 157, [1-[3-(difluoromethoxy)-1-[3-[[(1R,2R)-2-hydroxyindan-1-yl]carbamoyl]phenyl]propyl]-4,4-diethyl-6-oxo-hexahydropyrimidin-2-ylidene]ammonium; 2,2,2-trifluoroacetate] reads 1.8 nM; that for `CCC1(CC)CC(=O)N([C@H](CCOC(F)F)c2cccc(C(=O)N[C@@H]3c4ccccc4C[C@@]3(C)O)c2)C(=N)N1` [Example 158A, 3-[1-(4,4-diethyl-2-imino-6-oxo-hexahydropyrimidin-1-yl)-3-(difluoromethoxy)propyl]-N-[(1R,2R)-2-hydroxy-2-methyl-indan-1-yl]benzamide], 2.6 nM; that for `CCC1(CC)CC(=O)N([C@H](CCOC(F)F)c2cccc(C(=O)N[C@@H]3c4ccccc4OC(C)(C)[C@H]3O)c2)C(=N)N1` [Example 159, [1-[3-(difluoromethoxy)-1-[3-[[(3S,4R)-3-hydroxy-2,2-dimethyl-chroman-4-yl]carbamoyl]phenyl]propyl]-4,4-diethyl-6-oxo-hexahydropyrimidin-2-ylidene]ammonium; 2,2,2-trifluoroacetate], 0.8 nM.
For `CCC1(CC)CC(=O)N([C@H](CCOC(F)F)c2cccc(C(=O)N[C@H]3CC(C)(C)Oc4ccccc43)c2)C(=N)N1` [Example 160, [1-[3-(difluoromethoxy)-1-[3-[[(4S)-2,2-dimethylchroman-4-yl]carbamoyl]phenyl]propyl]-4,4-diethyl-6-oxo-hexahydropyrimidin-2-ylidene]ammonium; 2,2,2-trifluoroacetate], the EC50 worked out at 0.5 nM.
The same measure, in the same setting: with `CCC1(CC)CC(=O)N([C@H](CCS(C)(=O)=O)c2cccc(C(=O)N[C@H]3CCOc4ccccc43)c2)C(=N)N1` [Example 161, [1-[1-[3-[[(4S)-chroman-4-yl]carbamoyl]phenyl]-3-methylsulfonyl-propyl]-4,4-diethyl-6-oxo-hexahydropyrimidin-2-ylidene]ammonium; 2,2,2-trifluoroacetate] the figure was 23 nM; with `CCC1(CC)CC(=O)N([C@H](CCS(C)(=O)=O)c2cccc(C(=O)N[C@H]3C[C@H](C(F)(F)F)Oc4ccccc43)c2)C(=N)N1` [Example 162, [4,4-diethyl-1-[3-methylsulfonyl-1-[3-[[(2R,4S)-2-(trifluoromethyl)chroman-4-yl]carbamoyl]phenyl]propyl]-6-oxo-hexahydropyrimidin-2-ylidene]ammonium; 2,2,2-trifluoroacetate], 5.2 nM; with `CCC[C@H](c1cccc(C(=O)N[C@@H]2c3ccccc3OC[C@@]2(C)O)c1)N1C(=N)NC(CC)(CC)CC1=O` [Example 163A, 3-[(1R)-1-(4,4-diethyl-2-imino-6-oxo-hexahydropyrimidin-1-yl)butyl]-N-[(3S,4R)-3-hydroxy-3-methyl-chroman-4-yl]benzamide], 0.3 nM.
Regarding `CCC1(CC)CC(=O)N([C@H](CCOC(F)F)c2cccc(C(=O)N[C@H]3CCOc4ccccc43)c2)C(=N)N1` [Example 164, [1-[1-[3-[[(4S)-chroman-4-yl]carbamoyl]phenyl]-3-(difluoromethoxy)propyl]-4,4-diethyl-6-oxo-hexahydropyrimidin-2-ylidene]ammonium; 2,2,2-trifluoroacetate], the EC50 turned out to be 0.9 nM.

Staying with this assay, now noted: parasite growth measured by LDH assay after 72 hours at 37° C.; 0.7% rings, 2% haematocrit; read-out: EC50.
On to `CCC1(CC)CC(=O)N([C@H](COCCOC)c2cccc(C(=O)NC3c4ccccc4CC3(C)O)c2)C(=N)N1` (stereo partly drawn) [Example 146B, 3-[(1S)-1-(4,4-diethyl-2-imino-6-oxo-hexahydropyrimidin-1-yl)-2-(2-methoxyethoxy)ethyl]-N-(2-hydroxy-2-methyl-indan-1-yl)benzamide], for which the EC50 came to 6.4 nM.
Same read-out and setting: with `CCC1(CC)CC(=O)N([C@H](CCS(C)(=O)=O)c2cccc(C(=O)N[C@@H]3c4ccccc4C[C@]3(C)O)c2)C(=N)N1` [Example 154B, 3-[1-(4,4-diethyl-2-imino-6-oxo-hexahydropyrimidin-1-yl)-3-methylsulfonyl-propyl]-N-[(1R,2S)-2-hydroxy-2-methyl-indan-1-yl]benzamide] the figure was 69 nM.
On the same count and under the same terms, the result for `CCC1(CC)CC(=O)N([C@H](CCOC(F)F)c2cccc(C(=O)N[C@@H]3c4ccccc4C[C@]3(C)O)c2)C(=N)N1` [Example 158B, 3-[1-(4,4-diethyl-2-imino-6-oxo-hexahydropyrimidin-1-yl)-3-(difluoromethoxy)propyl]-N-[(1R,2S)-2-hydroxy-2-methyl-indan-1-yl]benzamide] reads 2.4 nM; that for `CCC[C@H](c1cccc(C(=O)N[C@@H]2c3ccccc3OC[C@]2(C)O)c1)N1C(=N)NC(CC)(CC)CC1=O` [Example 163B, 3-[(1R)-1-(4,4-diethyl-2-imino-6-oxo-hexahydropyrimidin-1-yl)butyl]-N-[(3R,4R)-3-hydroxy-3-methyl-chroman-4-yl]benzamide], 0.4 nM.

Values taken from patent US12629374B2, “Antimalarial agents” (Merck Sharp & Dohme LLC, priority 2020, dated 2026).
